Experiments:
Experiment in all cases: Cell proliferation CellTiterGlo Ex.2
Format in all cases: cell-based
A375 = settings: Homo sapiens, A-375; A375 (Skin), 72 h
Summary of the method: (§1)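 Cells were seeded, incubated overnight at 37 °C, then dosed at 10, 3, 1, 0.3, 0.1, 0.03, 0.01 and 0.003 μM for 72 h (5% or 10% CO2). CellTiterGlo luminescence gave percent viability relative to 0.10% DMSO (high) and 10 μM staurosporine (low) controls.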

A427 = settings: Homo sapiens, A-427; A427 (Lung), 72 h
Summary of the method: as §1

BEN = BEN (Lung), 72 h
Summary of the method: as §1

BT-20 = settings: Homo sapiens; BT-20 (Breast), 72 h
Summary of the method: as §1

COR-L279 = settings: Homo sapiens; COR-L279 (Lung), 72 h
Summary of the method: as §1

DV90 = settings: Homo sapiens, DV-90; DV90 (Lung), 72 h
Summary of the method: as §1

EFM-192A = EFM-192A (Breast), 72 h
Summary of the method: as §1

EFO-27 = settings: Homo sapiens; EFO-27 (Ovary), 72 h
Summary of the method: as §1

H2228 = settings: Homo sapiens, NCI-H2228; H2228 (Lung), 72 h
Summary of the method: as §1

HCC827 = settings: Homo sapiens; HCC827 (Lung), 72 h
Summary of the method: as §1

HCT-15 = settings: Homo sapiens; HCT-15 (Colon), 72 h
Summary of the method: as §1

JIMT-1 = settings: Homo sapiens; JIMT-1 (Breast), 72 h
Summary of the method: as §1

Jurkat = settings: Homo sapiens; Jurkat (Blood), 72 h
Summary of the method: as §1

KMS-12-BM = settings: Homo sapiens; KMS-12-BM (Blood), 72 h
Summary of the method: as §1

LOU-NH91 = LOU-NH91 (Lung), 72 h
Summary of the method: as §1

MDA MB 435 = settings: Homo sapiens; MDA MB 435 (Skin), 72 h
Summary of the method: as §1

MEC-1 = settings: Homo sapiens, MEC1; MEC-1 (Blood), 72 h
Summary of the method: as §1

MOLT-4 = settings: Homo sapiens; MOLT-4 (Blood), 72 h
Summary of the method: as §1

NCI-H1437 = settings: Homo sapiens; NCI-H1437 (Lung), 72 h
Summary of the method: as §1

NCI-H1563 = settings: Homo sapiens; NCI-H1563 (Lung), 72 h
Summary of the method: as §1

NCI-H1581 = settings: Homo sapiens; NCI-H1581 (Lung), 72 h
Summary of the method: as §1

NCI-H1703 = settings: Homo sapiens; NCI-H1703 (Lung), 72 h
Summary of the method: as §1

NCI-H82 = settings: Homo sapiens; NCI-H82 (Lung), 72 h
Summary of the method: as §1

OCI-AML5 = settings: Homo sapiens, OCI-AML-5; OCI-AML5 (Blood), 72 h
Summary of the method: as §1

OVK18 = OVK18 (Ovary), 72 h
Summary of the method: as §1

PC3 = settings: Homo sapiens, PC-3; PC3 (Prostate), 72 h
Summary of the method: as §1

RERF-LC-Ad2 = RERF-LC-Ad2 (Lung), 72 h
Summary of the method: as §1

RKO = settings: Homo sapiens; RKO (Colon), 72 h
Summary of the method: as §1

SK-BR-3 = settings: Homo sapiens; SK-BR-3 (Breast), 72 h
Summary of the method: as §1

SK-ES-1 = settings: Homo sapiens, SK-ES1; SK-ES-1 (Bone), 72 h
Summary of the method: as §1

SU-DHL-5 = settings: Homo sapiens; SU-DHL-5 (Blood), 72 h
Summary of the method: as §1

SiHa = settings: Homo sapiens; SiHa (Cervix), 72 h
Summary of the method: as §1

U-937 = settings: Homo sapiens; U-937 (Blood), 72 h
Summary of the method: as §1

SMILES: C#C[C@]1(CO)O[C@@H](n2cnc3c(=O)[nH]c(N)nc32)C[C@@H]1O [compound 13]
- IC50 (A375): 2.37 µM
- IC50 (A427): 0.55 µM
- IC50 (BEN): > 10 µM
- IC50 (BT-20): > 10 µM
- IC50 (COR-L279): > 10 µM
- IC50 (DV90): 1.59 µM
- IC50 (EFM-192A): > 10 µM
- IC50 (EFO-27): 9.9 µM
- IC50 (H2228): > 10 µM
- IC50 (HCC827): 4.47 µM
- IC50 (HCT-15): > 10 µM
- IC50 (JIMT-1): 7 µM
- IC50 (Jurkat): 1.17 µM
- IC50 (KMS-12-BM): 0.96 µM
- IC50 (LOU-NH91): > 10 µM
- IC50 (MDA MB 435): > 10 µM
- IC50 (MEC-1): 9.85 µM
- IC50 (MOLT-4): 0.51 µM
- IC50 (NCI-H1437): > 10 µM
- IC50 (NCI-H1563): > 10 µM
- IC50 (NCI-H1581): 2.97 µM
- IC50 (NCI-H1703): 9.16 µM
- IC50 (NCI-H82): 6.46 µM
- IC50 (OCI-AML5): 1.37 µM
- IC50 (OVK18): 2.21 µM
- IC50 (PC3): 4.01 µM
- IC50 (RERF-LC-Ad2): 2.58 µM
- IC50 (RKO): 4.51 µM
- IC50 (SK-BR-3): > 10 µM
- IC50 (SK-ES-1): 4.99 µM
- IC50 (SU-DHL-5): 3.74 µM
- IC50 (SiHa): 2.45 µM
- IC50 (U-937): 1.12 µM
